Where two headings read alike, the source gives them in different places. Blank lines part the entries; values can stand above or below the compound they belong to.
How the values were obtained:
tubulin = biological target: T1, tubulin; experiment: SPR (Biacore); supported by colchicine fluorescence competition, polymerization of purified pork tubulin and CD; type: binding, Sus scrofa
T1 construct: gene TUBB; purified tubulin (Cytoskeleton, Denver) immobilized on CM5 chip; with alpha-tubulin

A549 = experiment: cells; set-up: SRB anti-proliferation assay against a panel of human tumour cell lines; details: Homo sapiens, A549
Procedure: (§1) The anti-proliferative activity of S9 was measured with SRB assay against a panel of human tumor cells, including oral epidermoid cancer, lung cancer, liver cancer, colon cancer, rhabdomyosarcoma, ovarian cancer, osteosarcoma, breast cancer, cervix cancer, stomach cancer, prostate cancer and leukemia cells. […] This advantage was also observed in the mini-set of colon cancer cell lines (Fig. 6A). […] A) Antiproliferative activity of S9 and wortmannin against a wide panel of tumor cell lines. IC50s plotted as mean±SD (µM) were from three separate experiments. B) Resistance factor (RF) of S9 and reference compounds in drug-resistant cancer cells. RF was calculated as the ratio of the IC50 value of the drug-resistant cells to that of the corresponding parental cells. C) S9 induces rapid apoptosis in human cancer cells. Rh30, A375, MKN-28 and U2OS cells were treated with S9 for 8 h. Apoptosis was measured by Annexin V-PI double staining. Apoptosis measured as Annexin-V positive cells were plotted. Data shown were mean±SD from three independent experiments. D) Rh30 (left panel) and SMMC7721 (right panel) xenograft growth inhibition after administration of S9. Rh30 and SMMC7721 nude mice were subcutaneously inoculated with a tumor fragment. The animals were randomly divided in groups when tumor volume reached 100 to 200 mm^3 and received i.p. injection of normal saline or S9 five times a week for two weeks. Tumor volumes were measured and relative tumor volumes were calculated as tumor volumeDn/tumor volumeD0. Data shown are the mean of six mice. Human colorectal carcinoma LOVO, human breast carcinoma MDA-MB-468, human prostate carcinoma PC3, human osteosarcoma U2OS cells were from American Type Culture Collection (ATCC, Manassas, VA); human lung adenocarcinoma NCI-H23 cells were obtained from the National Cancer Institute (NCI); rhabdomyosarcoma (RMS) Rh30 cells were generous gift from Dr. P.J. Houghton (St. Jude Children's Research Hospital, Memphis, TN). MDA-MB-468, Rh30, LOVO, NCI-H23 and U2OS cells were grown in RPMI-1640 medium supplemented with 10% (v/v) fetal bovine serum (FBS; GIBCO, Grand Island, NY), 2 mM L-glutamine, 100 U/ml benzylpenicillin, 100 µg/ml streptomycin and 10 mM HEPES (pH 7.4). PC3 cells were grown in Ham's F12 (GIBCO, Grand Island, NY) with 10% FBS. CHO (pCORON1000-EGFP-Akt) was purchased from GE Healthcare (EGFP: Enhanced Green Fluorescence Protein) and propagated in F-12 Ham medium with Glutamax supplemented with 10% FBS, penicillin-streptomycin (50 U/ml) and geneticin (0.5 mg/ml, Sigma-Aldrich, St. Louis, MO). Rest of cells used in this study were grown as described previously. All cells were cultured in a highly humidified atmosphere containing 5% CO2 at 37°C.

BEL-7402 = experiment: cells; set-up: SRB anti-proliferation assay against a panel of human tumour cell lines; details: Homo sapiens, Bel-7402; read-out: IC50 (μM) S9
Procedure: as §1

HCT-116 = experiment: cells; set-up: SRB anti-proliferation assay against a panel of human tumour cell lines; details: Homo sapiens, HCT-116
Procedure: as §1

HL60/MX2 = experiment: cells; set-up: SRB anti-proliferation assay against a panel of human tumour cell lines; details: Homo sapiens, HL60/MX2
Procedure: as §1

HL60 = experiment: cells; set-up: SRB anti-proliferation assay against a panel of human tumour cell lines; details: Homo sapiens, HL-60
Procedure: as §1

HT-29 = experiment: cells; set-up: SRB anti-proliferation assay against a panel of human tumour cell lines; details: Homo sapiens, HT-29
Procedure: as §1

Hela = experiment: cells; set-up: SRB anti-proliferation assay against a panel of human tumour cell lines; details: Homo sapiens, HeLa; read-out: IC50 (μM) S9
Procedure: as §1

Hep-G2 = experiment: cells; set-up: SRB anti-proliferation assay against a panel of human tumour cell lines; details: Homo sapiens, HepG2
Procedure: as §1

K562/A02 = experiment: cells; set-up: SRB anti-proliferation assay against a panel of human tumour cell lines; details: Homo sapiens, K562/A02; read-out: IC50 (μM) S9
Procedure: as §1

K562/G01 = experiment: cells; set-up: SRB anti-proliferation assay against a panel of human tumour cell lines; details: Homo sapiens, K562
Procedure: as §1

K562 = experiment: cells; set-up: SRB anti-proliferation assay against a panel of human tumour cell lines; details: Homo sapiens, K562
Procedure: as §1

KB-3-1 = experiment: cells; set-up: SRB anti-proliferation assay against a panel of human tumour cell lines; details: Homo sapiens, KB 3-1
Procedure: as §1

KB-8-5-11 = experiment: cells; set-up: SRB anti-proliferation assay against a panel of human tumour cell lines
Procedure: as §1

KB-8-5 = experiment: cells; set-up: SRB anti-proliferation assay against a panel of human tumour cell lines; details: read-out: IC50 (μM) S9
Procedure: as §1

KB-V1 = experiment: cells; set-up: SRB anti-proliferation assay against a panel of human tumour cell lines; details: Homo sapiens, KB-V1
Procedure: as §1

LOVO = experiment: cells; set-up: SRB anti-proliferation assay against a panel of human tumour cell lines; details: Homo sapiens, LoVo
Procedure: as §1

MCF-7/ADR = experiment: cells; set-up: SRB anti-proliferation assay against a panel of human tumour cell lines; details: Homo sapiens, NCI/ADR-RES
Procedure: as §1

MCF-7 = experiment: cells; set-up: SRB anti-proliferation assay against a panel of human tumour cell lines; details: Homo sapiens, MCF7; read-out: IC50 (μM) S9
Procedure: as §1

MDA-MB-468 = experiment: cells; set-up: SRB anti-proliferation assay against a panel of human tumour cell lines; details: Homo sapiens, MDA-MB-468
Procedure: as §1

MKN-28 = experiment: cells; set-up: SRB anti-proliferation assay against a panel of human tumour cell lines; details: Homo sapiens, MKN-28
Procedure: as §1

MKN-45 = experiment: cells; set-up: SRB anti-proliferation assay against a panel of human tumour cell lines; details: Homo sapiens, MKN-45; read-out: IC50 (μM) S9
Procedure: as §1

NCI-H23 = experiment: cells; set-up: SRB anti-proliferation assay against a panel of human tumour cell lines; details: Homo sapiens, NCI-H23
Procedure: as §1

OV-CAR-5 = experiment: cells; set-up: SRB anti-proliferation assay against a panel of human tumour cell lines; details: Homo sapiens, OVCAR-5; read-out: IC50 (μM) S9
Procedure: as §1

PC3 = experiment: cells; set-up: SRB anti-proliferation assay against a panel of human tumour cell lines; details: Homo sapiens, PC-3; read-out: IC50 (μM) S9
Procedure: as §1

Rh1 = experiment: cells; set-up: SRB anti-proliferation assay against a panel of human tumour cell lines; details: Homo sapiens, RH-1; read-out: IC50 (μM) S9
Procedure: as §1

Rh30/rapa = experiment: cells; set-up: SRB anti-proliferation assay against a panel of human tumour cell lines; details: Rh30
Procedure: as §1

Rh30 = experiment: cells; set-up: SRB anti-proliferation assay against a panel of human tumour cell lines; details: Rh30
Procedure: as §1

SGC-7901 = experiment: cells; set-up: SRB anti-proliferation assay against a panel of human tumour cell lines; details: Homo sapiens, SGC-7901
Procedure: as §1

SK-OV-3 = experiment: cells; set-up: SRB anti-proliferation assay against a panel of human tumour cell lines; details: Homo sapiens, SK-OV-3
Procedure: as §1

U2OS = experiment: cells; set-up: SRB anti-proliferation assay against a panel of human tumour cell lines; details: Homo sapiens, U2OS
Procedure: as §1

Kd (tubulin): 11.1 µM
IC50 (A549; read-out: IC50 (μM) S9): 14.8 ± 2.2 µM
IC50 (BEL-7402): 11.8 ± 1.6 µM
IC50 (HCT-116; read-out: IC50 (μM) S9): 19.6 ± 1.9 µM
IC50 (HL60/MX2; read-out: IC50 (μM) S9): 2.41 ± 1.28 µM
IC50 (HL60; read-out: IC50 (μM) S9): 2.25 ± 0.74 µM
IC50 (HT-29; read-out: IC50 (μM) S9): 5.88 ± 0.28 µM
IC50 (Hela): 6.36 ± 1.51 µM
IC50 (Hep-G2; read-out: IC50 (μM) S9): 4.55 ± 1.8 µM
IC50 (K562/A02): 2.5 ± 0.01 µM
IC50 (K562/G01; read-out: IC50 (μM) S9): 2.17 µM
IC50 (K562; read-out: IC50 (μM) S9): 2.2 ± 0.33 µM
IC50 (KB-3-1; read-out: IC50 (μM) S9): 20.2 ± 3.8 µM
IC50 (KB-8-5-11; read-out: IC50 (μM) S9): 14.9 ± 1.3 µM
IC50 (KB-8-5): 28.8 ± 7.3 µM
IC50 (KB-V1; read-out: IC50 (μM) S9): 13.3 ± 2.2 µM
IC50 (LOVO; read-out: IC50 (μM) S9): 5.05 ± 0.5 µM
IC50 (MCF-7/ADR; read-out: IC50 (μM) S9): 5.73 ± 1.68 µM
IC50 (MCF-7): 4.86 ± 1.34 µM
IC50 (MDA-MB-468; read-out: IC50 (μM) S9): 14.1 ± 4.6 µM
IC50 (MKN-28; read-out: IC50 (μM) S9): 2.38 ± 0.39 µM
IC50 (MKN-45): 2.62 ± 0.26 µM
IC50 (NCI-H23; read-out: IC50 (μM) S9): 9.02 ± 0.05 µM
IC50 (PC3): 5.34 ± 1.39 µM
IC50 (SGC-7901; read-out: IC50 (μM) S9): 11.6 ± 2.41 µM
IC50 (SK-OV-3; read-out: IC50 (μM) S9): 25.5 ± 0.1 µM
IC50 (U2OS; read-out: IC50 (μM) S9): 5.9 ± 0.38 µM
SMILES: C=C1CC(Cn2c(-c3ccccc3)cc3cc(OCOC)ccc32)OC1=O (stereo not shown) [S9]
IC50 (OV-CAR-5): 15.4 ± 2.9 µM
IC50 (Rh1): 6.14 ± 0.05 µM
IC50 (Rh30/rapa; read-out: IC50 (μM) S9): 3.85 ± 0.95 µM
IC50 (Rh30; read-out: IC50 (μM) S9): 3.24 ± 1.2 µM

SMILES: COC[C@H]1OC(=O)c2coc3c2[C@@]1(C)C1=C(C3=O)[C@@H]2CCC(=O)[C@@]2(C)C[C@H]1OC(C)=O [wortmannin]
IC50 (A549; read-out: IC50 (μM) wortmannin): 9.33 ± 6.1 µM
IC50 (HCT-116; read-out: IC50 (μM) wortmannin): 41.5 ± 4.5 µM
IC50 (HL60/MX2; read-out: IC50 (μM) wortmannin): 1.47 ± 0.6 µM
IC50 (HL60; read-out: IC50 (μM) wortmannin): 7.55 ± 2.84 µM
IC50 (HT-29; read-out: IC50 (μM) wortmannin): 18 ± 2.4 µM
IC50 (Hep-G2; read-out: IC50 (μM) wortmannin): 12.3 ± 2.6 µM
IC50 (K562/G01; read-out: IC50 (μM) wortmannin): 10.4 ± 4.52 µM
IC50 (K562; read-out: IC50 (μM) wortmannin): 54.8 ± 6.3 µM
IC50 (KB-3-1; read-out: IC50 (μM) wortmannin): 27.2 ± 3.2 µM
IC50 (KB-8-5-11; read-out: IC50 (μM) wortmannin): 15.7 ± 4.1 µM
IC50 (KB-V1; read-out: IC50 (μM) wortmannin): 16.8 ± 2.2 µM
IC50 (LOVO; read-out: IC50 (μM) wortmannin): 12.2 ± 0.42 µM
IC50 (MCF-7/ADR; read-out: IC50 (μM) wortmannin): 47.2 ± 6.45 µM
IC50 (MDA-MB-468; read-out: IC50 (μM) wortmannin): 29.3 ± 6.6 µM
IC50 (MKN-28; read-out: IC50 (μM) wortmannin): 12.8 ± 2.8 µM
IC50 (NCI-H23; read-out: IC50 (μM) wortmannin): 5.57 ± 1.15 µM
IC50 (Rh30/rapa; read-out: IC50 (μM) wortmannin): 0.73 ± 0.51 µM
IC50 (Rh30; read-out: IC50 (μM) wortmannin): 11 ± 3.02 µM
IC50 (SGC-7901; read-out: IC50 (μM) wortmannin): 3.94 ± 1.74 µM
IC50 (SK-OV-3; read-out: IC50 (μM) wortmannin): 18 ± 6.3 µM
IC50 (U2OS; read-out: IC50 (μM) wortmannin): 26.7 ± 4.31 µM

Reference: publication PMC2654064, “S9, a Novel Anticancer Agent, Exerts Its Anti-Proliferative Activity by Interfering with Both PI3K-Akt-mTOR Signaling and Microtubule Cytoskeleton” (PLoS ONE, 2009)
